Results: patent publication US20240139349A1, “GADOLINIUM CHELATE, PREPARATION METHOD THEREFOR, AND APPLICATION THEREOF” (SUZHOU ZHECI PHARMACEUTICAL TECHNOLOGY CO., LTD., priority 2021, published 2024)
Where two headings read alike, the source gives them in different places.

Assay: In vitro MRI determination of longitudinal and transverse relaxation rates (r1, r2) of aqueous solutions
Type: physicochemical
Conditions: for r1 (longitudinal relaxation rate) / r2 (transverse relaxation rate): aqueous solutions
[1] = H0 3.0 T clinical MRI system (Philips, Ingenia)
[2] = H0 7.0 T small animal MRI system

| Compound | r2/r1 (H0 3.0 T) | r1 (longitudinal relaxation rate) [1] [M⁻¹ s⁻¹] | r2 (transverse relaxation rate) [1] [M⁻¹ s⁻¹] | r1 (longitudinal relaxation rate) [2] [M⁻¹ s⁻¹] | r2/r1 |
| --- | --- | --- | --- | --- | --- |
| O=C([O-])CN(CCN(CC(=O)[O-])CC(=O)O)CCN(CC(=O)[O-])CC(=O)O.[Gd+3] [Magnevist, Gd-DTPA] | 1.03 ± 0.03 | 4880 ± 120 | 5000 ± 100 | 3680 | – |
| O=[N+]([O-])[O-].O=[N+]([O-])[O-].O=[N+]([O-])[O-].[Gd+3] [Gd(NO3)3, gadolinium nitrate] | – | 11390 ± 250 | 12040 ± 310 | 8920 | 1.06 ± 0.006 |
| Gd-BSA: gadolinium chelate of bovine serum albumin | 1.72±0.02 | 34880 ± 1060 | 59920 ± 1570 | – | – |
| O=C([O-])CN1CCN(CC(=O)[O-])CCN([C@H](CO)[C@H](O)CO)CCN(CC(=O)[O-])CC1.[Gd+3] (racemic) [Gadavist, Gd-BT-DO3A] | 1.07 ± 0.03 | 4600 ± 90 | 4900 ± 40 | 3770 | – |
